Experimental data as given in ChEMBL document CHEMBL1149126, “3-phenyl-6-(2-pyridyl)methyloxy-1,2,4-triazolo[3,4-a]phthalazines and analogues: high-affinity gamma-aminobutyric acid-A benzodiazepine receptor ligands with alpha 2, alpha 3, and alpha 5-subtype binding selectivity over alpha 1” (J Med Chem, 2004).

biological target: T1, GABA-A receptor; alpha-1/beta-3/gamma-2 (Homo sapiens) (UniProt P14867+P18507+P28472); assay: (§1) Maximum percent change compared to GABA EC20 against GABA-A alpha-1-beta-3-gamma-2 receptor; format: protein-complex assay

Row | Efficacy | SMILES
1 | 36% | CC(Oc1nn2c(-c3ccccc3)nnc2c2ccccc12)c1ccccn1 (stereo not given)

biological target: T1, GABA-A receptor; alpha-1/beta-3/gamma-2 (Homo sapiens); assay: as §1; format: functional

Row | Efficacy | SMILES
2 | 43% | Cc1cccc2c1c(OCc1ccccn1)nn1c(-c3ccccc3)nnc21
3 | 65% | Cc1ccc2c(c1)c(OCc1ccccn1)nn1c(-c3ccccc3)nnc21
4 | 30% | c1ccc(-c2nnc3c4c(c(OCc5ccccn5)nn23)CCCCC4)cc1
5 | 16% | c1ccc(-c2nnc3c4c(c(OCc5ccccn5)nn23)CCCC4)cc1
6 | 0% | Cc1cccc2c(OCc3ccccn3)nn3c(-c4ccccc4)nnc3c12

biological target: GABA-A receptor; alpha-2/beta-3/gamma-2 (Homo sapiens) (UniProt P18507+P28472+P47869); assay: Maximum percent change compared to GABA EC20 against GABA-A alpha-2-beta-3-gamma-2 receptor; format: functional

Row | Efficacy | SMILES
7 | 27% | c1ccc(-c2nnc3c4c(c(OCc5ccccn5)nn23)CCCCC4)cc1
8 | 18% | c1ccc(-c2nnc3c4c(c(OCc5ccccn5)nn23)CCCC4)cc1

biological target: GABA-A receptor; alpha-5/beta-3/gamma-2 (Homo sapiens) (UniProt P18507+P28472+P31644); assay: Maximum percent change compared to GABA EC20 against GABA-A alpha-5-beta-3-gamma-2 receptor; format: functional

Row | Efficacy | SMILES
9 | 37% | c1ccc(-c2nnc3c4c(c(OCc5ccccn5)nn23)CCCCC4)cc1
10 | 6% | c1ccc(-c2nnc3c4c(c(OCc5ccccn5)nn23)CCCC4)cc1

biological target: GABA-A receptor; alpha-3/beta-3/gamma-2 (Homo sapiens) (UniProt P18507+P28472+P34903); assay: Maximum percent change compared to GABA EC20 against GABA-A alpha-3-beta-3-gamma-2 receptor; format: functional

Row | Efficacy | SMILES
11 | 39% | Cc1cccc2c1c(OCc1ccccn1)nn1c(-c3ccccc3)nnc21
12 | 27% | Cc1ccc2c(c1)c(OCc1ccccn1)nn1c(-c3ccccc3)nnc21
13 | 25% | CC(Oc1nn2c(-c3ccccc3)nnc2c2ccccc12)c1ccccn1 (stereo not given)
14 | 30% | c1ccc(-c2nnc3c4c(c(OCc5ccccn5)nn23)CCCCC4)cc1
15 | 17% | c1ccc(-c2nnc3c4c(c(OCc5ccccn5)nn23)CCCC4)cc1
16 | 19% | Cc1cccc2c(OCc3ccccn3)nn3c(-c4ccccc4)nnc3c12

biological target: T2, GABA-A receptor; alpha-3/beta-3/gamma-2 (Homo sapiens, UniProt P18507+P28472+P34903); assay: Binding affinity for human GABA-A receptor alpha-3-beta-3-gamma-2 subunits in L(tk-) cells; format: cell-based
T2 sequence (P18507 whole entry): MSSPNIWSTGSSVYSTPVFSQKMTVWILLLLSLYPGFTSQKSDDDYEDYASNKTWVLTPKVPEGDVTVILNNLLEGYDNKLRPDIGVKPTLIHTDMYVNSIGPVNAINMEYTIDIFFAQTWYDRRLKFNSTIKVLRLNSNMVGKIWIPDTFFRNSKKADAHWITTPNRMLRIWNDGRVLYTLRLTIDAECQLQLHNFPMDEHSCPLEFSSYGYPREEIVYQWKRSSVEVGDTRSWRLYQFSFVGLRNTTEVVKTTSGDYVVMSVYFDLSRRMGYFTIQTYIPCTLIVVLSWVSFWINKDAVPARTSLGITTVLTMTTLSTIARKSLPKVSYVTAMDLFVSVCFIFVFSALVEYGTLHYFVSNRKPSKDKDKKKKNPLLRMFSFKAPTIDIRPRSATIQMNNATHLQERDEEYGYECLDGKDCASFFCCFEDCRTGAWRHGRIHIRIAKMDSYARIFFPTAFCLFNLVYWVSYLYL
T2 sequence (P28472 whole entry): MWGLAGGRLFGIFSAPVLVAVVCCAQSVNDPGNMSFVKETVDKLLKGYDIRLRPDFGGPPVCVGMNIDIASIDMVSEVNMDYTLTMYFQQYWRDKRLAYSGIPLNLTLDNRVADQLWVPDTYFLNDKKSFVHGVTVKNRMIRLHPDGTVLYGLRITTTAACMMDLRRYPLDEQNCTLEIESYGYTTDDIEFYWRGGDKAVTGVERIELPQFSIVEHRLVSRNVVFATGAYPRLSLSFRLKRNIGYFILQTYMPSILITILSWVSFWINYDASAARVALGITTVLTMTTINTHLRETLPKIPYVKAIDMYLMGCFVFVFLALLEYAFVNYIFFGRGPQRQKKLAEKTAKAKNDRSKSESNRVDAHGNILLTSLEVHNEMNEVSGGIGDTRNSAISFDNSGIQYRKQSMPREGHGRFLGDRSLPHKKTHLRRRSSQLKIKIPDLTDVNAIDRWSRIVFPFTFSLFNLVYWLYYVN
T2 sequence (P34903 whole entry): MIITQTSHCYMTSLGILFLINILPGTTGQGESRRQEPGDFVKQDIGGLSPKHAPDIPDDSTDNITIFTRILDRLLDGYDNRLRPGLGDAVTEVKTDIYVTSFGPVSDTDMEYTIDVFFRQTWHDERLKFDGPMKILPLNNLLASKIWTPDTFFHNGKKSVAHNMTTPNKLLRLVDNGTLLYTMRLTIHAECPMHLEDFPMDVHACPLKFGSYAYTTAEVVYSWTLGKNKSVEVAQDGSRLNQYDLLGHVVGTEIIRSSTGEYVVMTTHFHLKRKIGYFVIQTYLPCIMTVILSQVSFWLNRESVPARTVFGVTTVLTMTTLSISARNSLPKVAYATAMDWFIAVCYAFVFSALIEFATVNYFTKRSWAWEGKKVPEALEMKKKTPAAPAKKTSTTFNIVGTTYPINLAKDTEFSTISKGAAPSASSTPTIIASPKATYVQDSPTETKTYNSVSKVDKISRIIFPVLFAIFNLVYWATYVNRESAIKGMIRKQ

Row | Ki | SMILES
17 | 35 nM | Cc1cccc2c1c(OCc1ccccn1)nn1c(-c3ccccc3)nnc21
18 | 1.2 nM | Cc1ccc2c(c1)c(OCc1ccccn1)nn1c(-c3ccccc3)nnc21
19 | 320 nM | CC(Oc1nn2c(-c3ccccc3)nnc2c2ccccc12)c1ccccn1 (stereo not given)
20 | 17 nM | c1ccc(-c2nnc3c4c(c(OCc5ccccn5)nn23)CCCCC4)cc1
21 | 0.85 nM | c1ccc(-c2nnc3c4c(c(OCc5ccccn5)nn23)CCCC4)cc1
22 | 0.37 nM | Cc1cccc2c(OCc3ccccn3)nn3c(-c4ccccc4)nnc3c12

biological target: T3, GABA-A receptor; alpha-5/beta-3/gamma-2 (Homo sapiens, UniProt P18507+P28472+P31644); assay: Binding affinity for human GABA-A receptor alpha-5-beta-3-gamma-2 subunits in L(tk-) cells; format: cell-based
T3 sequence (P18507 whole entry): T2 sequence (P18507 whole entry)
T3 sequence (P28472 whole entry): T2 sequence (P28472 whole entry)
T3 sequence (P31644 whole entry): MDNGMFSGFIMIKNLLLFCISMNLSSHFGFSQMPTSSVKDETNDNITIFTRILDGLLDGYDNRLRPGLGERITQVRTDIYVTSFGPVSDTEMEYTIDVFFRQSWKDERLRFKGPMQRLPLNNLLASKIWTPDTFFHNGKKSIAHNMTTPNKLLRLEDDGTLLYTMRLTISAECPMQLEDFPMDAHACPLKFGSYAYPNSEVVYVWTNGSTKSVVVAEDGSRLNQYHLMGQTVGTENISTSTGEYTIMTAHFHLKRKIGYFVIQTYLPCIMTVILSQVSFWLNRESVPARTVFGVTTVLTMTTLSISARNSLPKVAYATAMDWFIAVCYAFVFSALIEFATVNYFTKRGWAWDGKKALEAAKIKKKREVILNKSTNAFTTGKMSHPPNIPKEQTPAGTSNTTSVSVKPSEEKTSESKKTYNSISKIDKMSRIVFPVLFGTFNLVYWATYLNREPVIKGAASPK

Row | Ki | SMILES
23 | 20 nM | Cc1cccc2c1c(OCc1ccccn1)nn1c(-c3ccccc3)nnc21
24 | 0.64 nM | Cc1ccc2c(c1)c(OCc1ccccn1)nn1c(-c3ccccc3)nnc21
25 | 140 nM | CC(Oc1nn2c(-c3ccccc3)nnc2c2ccccc12)c1ccccn1 (stereo not given)
26 | 2.7 nM | c1ccc(-c2nnc3c4c(c(OCc5ccccn5)nn23)CCCCC4)cc1
27 | 0.38 nM | c1ccc(-c2nnc3c4c(c(OCc5ccccn5)nn23)CCCC4)cc1
28 | 0.84 nM | Cc1cccc2c(OCc3ccccn3)nn3c(-c4ccccc4)nnc3c12

biological target: T4, GABA-A receptor; alpha-2/beta-3/gamma-2 (Homo sapiens, UniProt P18507+P28472+P47869); assay: Binding affinity for human GABA-A receptor alpha-2-beta-3-gamma-2 subunits in L(tk-) cells; format: cell-based
T4 sequence (P18507 whole entry): T2 sequence (P18507 whole entry)
T4 sequence (P28472 whole entry): T2 sequence (P28472 whole entry)
T4 sequence (P47869 whole entry): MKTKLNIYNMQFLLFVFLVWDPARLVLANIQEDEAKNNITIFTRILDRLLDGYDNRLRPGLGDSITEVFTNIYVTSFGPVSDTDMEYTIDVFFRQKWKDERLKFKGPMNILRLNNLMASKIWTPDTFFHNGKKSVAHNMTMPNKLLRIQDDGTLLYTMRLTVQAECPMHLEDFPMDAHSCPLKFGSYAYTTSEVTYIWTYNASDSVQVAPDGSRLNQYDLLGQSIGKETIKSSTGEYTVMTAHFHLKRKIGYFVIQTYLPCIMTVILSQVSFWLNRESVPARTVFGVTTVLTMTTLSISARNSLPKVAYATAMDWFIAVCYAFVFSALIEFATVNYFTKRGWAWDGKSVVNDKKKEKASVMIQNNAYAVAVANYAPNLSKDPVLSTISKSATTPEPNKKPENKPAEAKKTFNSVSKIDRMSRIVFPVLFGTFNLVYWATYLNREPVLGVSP

Row | Ki | SMILES
29 | 44 nM | Cc1cccc2c1c(OCc1ccccn1)nn1c(-c3ccccc3)nnc21
30 | 2.2 nM | Cc1ccc2c(c1)c(OCc1ccccn1)nn1c(-c3ccccc3)nnc21
31 | 520 nM | CC(Oc1nn2c(-c3ccccc3)nnc2c2ccccc12)c1ccccn1 (stereo not given)
32 | 17 nM | c1ccc(-c2nnc3c4c(c(OCc5ccccn5)nn23)CCCCC4)cc1
33 | 1.9 nM | c1ccc(-c2nnc3c4c(c(OCc5ccccn5)nn23)CCCC4)cc1
34 | 1.8 nM | Cc1cccc2c(OCc3ccccn3)nn3c(-c4ccccc4)nnc3c12

biological target: T5, GABA-A receptor; alpha-1/beta-3/gamma-2 (Homo sapiens, UniProt P14867+P18507+P28472); assay: Binding affinity for human GABA-A receptor alpha-1-beta-3-gamma-2 subunits in L(tk-) cells
T5 sequence (P14867 whole entry): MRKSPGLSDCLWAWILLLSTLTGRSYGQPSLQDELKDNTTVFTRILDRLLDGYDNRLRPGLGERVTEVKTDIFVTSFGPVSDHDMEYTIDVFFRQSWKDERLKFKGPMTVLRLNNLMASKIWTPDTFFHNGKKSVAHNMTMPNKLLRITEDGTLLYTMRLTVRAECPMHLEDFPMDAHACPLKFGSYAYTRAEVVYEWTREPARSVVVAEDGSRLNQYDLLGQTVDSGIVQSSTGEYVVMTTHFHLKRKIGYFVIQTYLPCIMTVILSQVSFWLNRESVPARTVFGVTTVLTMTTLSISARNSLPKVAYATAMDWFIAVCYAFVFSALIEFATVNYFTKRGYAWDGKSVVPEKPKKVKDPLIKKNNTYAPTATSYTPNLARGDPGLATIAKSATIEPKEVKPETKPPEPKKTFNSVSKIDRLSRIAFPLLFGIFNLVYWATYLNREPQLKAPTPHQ
T5 sequence (P18507 whole entry): T2 sequence (P18507 whole entry)
T5 sequence (P28472 whole entry): T2 sequence (P28472 whole entry)

Row | Ki | SMILES
35 | 56 nM | Cc1cccc2c1c(OCc1ccccn1)nn1c(-c3ccccc3)nnc21
36 | 2.2 nM | Cc1ccc2c(c1)c(OCc1ccccn1)nn1c(-c3ccccc3)nnc21
37 | 960 nM | CC(Oc1nn2c(-c3ccccc3)nnc2c2ccccc12)c1ccccn1 (stereo not given)
38 | 41 nM | c1ccc(-c2nnc3c4c(c(OCc5ccccn5)nn23)CCCCC4)cc1
39 | 4.3 nM | c1ccc(-c2nnc3c4c(c(OCc5ccccn5)nn23)CCCC4)cc1
40 | 1.2 nM | Cc1cccc2c(OCc3ccccn3)nn3c(-c4ccccc4)nnc3c12
